Test results reported in patent publication US20220251105A1, “METHODS OF TREATING A MK2-MEDIATED DISORDER” (Celgene CAR LLC, priority 2019, published 2022).
Where two headings read alike, the source gives them in different places.

Tests used:
CAIA in BALB/c mice = experiment: collagen antibody-induced arthritis (CAIA) model; assay type: in vivo, mouse
[1] = single intravenous dose pharmacokinetics in CD-1 mice; assay type: in vivo, mouse; settings: for Vd: read-out: Vdss
Procedure: In vitro and in vivo studies were conducted to characterize the absorption, PK, distribution, and metabolism of Compound 1. […] Additionally, plasma samples from single dose PK studies in mice and monkeys were evaluated for circulating metabolites.

Mouse/CD-1 = experiment: exploratory single dose and 14-day repeat-dose toxicity study in mice; assay type: in vivo
Procedure: A single oral dose study with a 14-day repeat-dose phase was conducted in male and female mice. 250 mg/kg was selected as the highest dose for the repeat dose portion of the study.

[2] = toxicokinetics, 7-day monkey study; assay type: in vivo; settings: cynomolgus monkey, plasma, oral, monkeys, read-out: Mean Day 7 AUC0-last
Procedure: (§1) In cynomolgus monkeys, a 7-day repeat dose toxicity study was conducted with doses up to 250 mg/kg/day. […] To aid in dose selection for a subsequent pivotal study, an additional study was conducted to determine the maximum feasible dose under optimal feeding conditions in cynomolgus monkeys. […] Dosing monkeys in the fasted state prior to dosing yielded more consistently higher exposures. Therefore, a dose of 375 mg/kg in 0.5% methyl cellulose (400 cps) and 0.1% Tween 80 administered to fasted monkeys was selected for the 14-day repeat-dose phase of the study, and was considered the maximum feasible dose.

Monkey/Cynomolgus = experiment: single dose (fasted/non-fasted) and 14-day repeat-dose study in cynomolgus monkeys; assay type: in vivo
Procedure: as §1

[3] = pivotal 28-day repeat-dose toxicity study in monkeys; assay type: in vivo, cynomolgus monkey; settings: both sexes, cynomolgus monkey, in vivo; monkeys, 28 days, highest dose used; read-out: NOAEL with respect to dose
healthy adult subjects = experiment: Phase 1 first in human study, safety and tolerability; assay type: in vivo
Procedure: The 2 sentinel subjects (chosen according to a randomization scheme) were dosed on Day 1. After at least 24 hours, the safety profile was acceptable to the Investigator (based on, at minimum, adverse events [AEs], concomitant medications and procedures, and any other important clinical observations), and the remainder of the cohort was dosed according to the randomization schedule.
The same total daily dose was then administered for the remainder of the planned treatment schedule (Days 2 to 14, inclusive).
Results. This study was a Phase 1, three-part study with a double-blind, placebo-controlled, single ascending dose (SAD) phase, a double-blind multiple ascending dose (MAD) phase, and an open-label cross-over food effect phase. The study enrolled a total of 97 healthy adult subjects.

[4] = tested on: proinflammatory cytokines (TNF-α) in LPS-stimulated whole blood; experiment: Phase 1 study, whole-blood ex vivo assay with LPS stimulation; assay type: cell-based, human
in vivo = settings: HLA-B27/Huβ2m transgenic, rat, plasma, po
Source text: In each disease model, steady-state pharmacokinetics were characterized.

[5] = CD-1, plasma, mouse, female, single IV 5 mg/kg
[6] = CD-1, plasma, mouse, male, single IV 5 mg/kg

In the case of CCOCc1cnc(Cl)nc1Oc1ccc2c(ccc3sc4c(c32)NC[C@@H](C)NC4=O)n1 [Compound 1], the “% Inhibition, paw swelling” value (CAIA in BALB/c mice; 3 mg/kg, last day of dosing) is reported as 89.7% paw, the “Minimally Efficacious Dose” value (CAIA in BALB/c mice; endpoint paw swelling) is reported as 3 mg/kg and the AUC [1, 5] is reported as 3400 ng·h/mL. It also gave an AUC(0-inf) [1, 5] of 3430 ng·h/mL, a clearance [1, 5] of 24.3 mL/min/kg and a Vd [1, 5] of 2.49 L/kg. It also gave a half-life ([1]; CD-1, plasma, mouse, female, single IV 5 mg/kg, read-out: t1/2,z (converted)) of 6.6 h, an AUC [1, 6] of 4160 ng·h/mL and an AUC(0-inf) [1, 6] of 4350 ng·h/mL. It also gave a clearance [1, 6] of 19.2 mL/min/kg, a Vd [1, 6] of 5.08 L/kg and a half-life ([1]; CD-1, plasma, mouse, male, single IV 5 mg/kg, read-out: t1/2,z (converted)) of 7.3 h. The half-life ([1]; both sexes, CD-1, mouse, plasma, iv, 5 mg/kg, mice, read-out: terminal half-life (converted)) was ~7 h, the “systemic clearance as % of liver blood flow” value ([1]; mice, IV) was “approximately 25 % of liver blood flow” and the “Findings, 14-day phase” value (Mouse/CD-1; mice, 15, 75, 250 mg/kg/day) was “no compound related findings were identified”. The “Findings, single dose phase” value (Mouse/CD-1; mice, at 750 mg/kg) was “Cold to touch and shaking”, the AUC(0-t) ([2]; 25 mg/kg/day) was 1090 ng·h/mL and the AUC(0-t) ([2]; 75 mg/kg/day) was 1170 ng·h/mL. For the same compound, the AUC(0-t) ([2]; 250 mg/kg/day) was 9440 ng·h/mL, the “Findings, single dose phase” value (Monkey/Cynomolgus; 375 and 500 mg/kg, fasted and non-fasted) was “No compound-related findings” and the “Findings, 14-day phase” value (Monkey/Cynomolgus; fasted, 375 mg/kg/day) was “No compound-related findings”. For the same compound, the NOAEL at 28 days [3] was 375 mg/kg/day, the “most common TEAEs suspected related (skin and subcutaneous tissue disorder)” value (healthy adult subjects; Part 1, 400-mg dose level, 2 TEAEs in 2 subjects) was “mild, transient, pruritic, erythematous rash without other organ involvement” and the “severe TEAEs or serious adverse events” value (healthy adult subjects; Part 1, single doses 3 mg to 400 mg) was “no severe TEAEs or serious adverse events (SAEs)”. For the same compound, the “TEAEs suspected to be related to Compound 1” value (healthy adult subjects; Part 1, single doses 3 mg to 400 mg, of the 22 total TEAEs) was 5, the “ALT elevations, other 2 subjects” value (healthy adult subjects; Part 2, 120 mg) was “less than 2 × above the upper limit of normal” and the “peak ALT elevation” value (healthy adult subjects; Part 2, 120 mg, one subject, Day 17) was 2.3 ×ULN. The “TEAEs suspected to be related to Compound 1” value (healthy adult subjects; Part 2, 10 to 150 mg daily for 14 days, of the 42 total TEAEs) was 9, the “subjects with increase in serum transaminase levels (ALT) above ULN” value (healthy adult subjects; Part 2, 120-mg dose cohort, of 6 subjects on active treatment) was 3 and the transaminase level changes (healthy adult subjects; Part 2, 150-mg dose cohort, 14-day dosing period) was “no transaminase level changes were observed in any subject”. For the same compound, the tolerability (healthy adult subjects; single dose up to 400 mg, 14 days up to 150 mg) was “well tolerated”, the “TNF inhibition in the ex vivo assay” value ([4]; Part 1, single oral doses 10 mg to 400 mg, by 4 hours, LPS 24 hours) was “dose dependent increase” and the “TNF-α in the ex vivo assay” value ([4]; Part 2, 14 days of dosing, doses greater than 10 mg, maximal inhibition at 150 mg) was “sustained reductions in TNF-α”. The AUC (in vivo; 20 mg/kg) was 2820 ng·h/mL and the AUC (in vivo; 100 mg/kg) was 7190 ng·h/mL.
